Data on 16 molecules can be found in patent US9969752B2, “Inhibitors of HIF prolyl hydroxylase” (MERCK SHARP & DOHME CORP., priority 2014, dated 2018).

T1 sequence (Q9GZT9 whole entry): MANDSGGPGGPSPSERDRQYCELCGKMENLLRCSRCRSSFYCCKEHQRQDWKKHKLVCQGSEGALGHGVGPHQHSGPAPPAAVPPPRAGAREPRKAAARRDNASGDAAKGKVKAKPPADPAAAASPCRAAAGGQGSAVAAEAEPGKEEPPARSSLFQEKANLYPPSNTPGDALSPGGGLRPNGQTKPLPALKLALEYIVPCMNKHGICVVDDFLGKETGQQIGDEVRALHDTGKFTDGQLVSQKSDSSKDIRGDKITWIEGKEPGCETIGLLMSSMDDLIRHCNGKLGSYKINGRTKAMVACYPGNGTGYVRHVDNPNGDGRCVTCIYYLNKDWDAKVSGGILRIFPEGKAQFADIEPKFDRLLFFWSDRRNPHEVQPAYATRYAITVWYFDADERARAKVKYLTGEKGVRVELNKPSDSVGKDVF

The first assay concerns the target T1, Human HIF-PHD2 (Homo sapiens, UniProt Q9GZT9).
T1 construct: FLAG-tagged full length PHD2 expressed in and purified from baculovirus-infected Sf9 cells; FLAG; made in house; host or cells: baculovirus-infected Sf9 cells
In words: Inhibition of the hydroxylation of a HIF peptide by PHD2 (time resolved fluorescence, 384-well). The format is biochemical. To be noted: FLAG-tagged full length PHD2; 0.2 μM 2-oxoglutarate, 0.5 μM HIF-1α peptide; 45 minutes at room temperature; read-out: Human HIF-PHD2 IC50.
`N#Cc1ccc2c(O)c(C(=O)NCC(=O)O)c(=O)n3c2c1OCC3c1ccc(C(F)(F)F)cc1` (stereo not shown) [Example 178, Ammonium 2-(10-cyano-7-hydroxy-5-oxo-3-(4-(trifluoromethyl)phenyl)-3,5-dihydro-2H-[1,4]oxazino[2,3,4-ij]quinoline-6-carboxamido)acetate]: the IC50 was 5.4 nM.

For `CS(=O)(=O)c1ccc(C2COc3cccc4c(O)c(C(=O)NCC(=O)O)c(=O)n2c34)cc1` (stereo not shown) [Example 183, Ammonium 2-(7-hydroxy-3-(4-(methylsulfonyl)phenyl)-5-oxo-3,5-dihydro-2H-[1,4]oxazino[2,3,4-ij]quinoline-6-carboxamido)acetate], the IC50 was found to be 15 nM.

Regarding `O=C(O)CNC(=O)c1c(O)c2cc(-c3ccn[nH]3)cc3c2n(c1=O)C(c1ccc(C(F)(F)F)cc1)CO3` (stereo not shown) [Example 185, 2-(7-Hydroxy-5-oxo-9-(1H-pyrazol-5-yl)-3-(4-(trifluoromethyl)phenyl)-3,5-dihydro-2H-[1,4]oxazino[2,3,4-ij]quinoline-6-carboxamido)acetic acid], the IC50 stood at 12 nM.

Staying with this assay, now noted: FLAG-tagged full length PHD2; 0.2 μM 2-oxoglutarate, 0.5 μM HIF-1α peptide; 45 minutes at room temperature; read-out: MS m/z (M + 1)+ and human HIF-PHD2 IC50.
Turning to `O=C(O)CNC(=O)c1c(O)c2ccc(Br)c3c2n(c1=O)C(c1cscn1)CO3` (stereo not shown) [Example 170, 2-(10-bromo-7-hydroxy-5-oxo-3-(thiazol-4-yl)-3,5-dihydro-2H-[1,4]oxazino[2,3,4-ij]quinoline-6-carboxamido)acetic acid], the IC50 was found to be 5 nM.

For the molecule `O=C(O)CNC(=O)c1c(O)c2cccc3c2n(c1=O)C(c1cnc(C(F)(F)F)s1)CO3` (stereo not shown) [Example 171, 2-(7-hydroxy-5-oxo-3-(2-(trifluoromethyl)thiazol-5-yl)-3,5-dihydro-2H-[1,4]oxazino[2,3,4-ij]quinoline-6-carboxamido)acetic acid], the IC50 turned out to be 5.4 nM.

As to `O=C(O)CNC(=O)c1c(O)c2c(F)ccc3c2n(c1=O)C(c1cncs1)CO3` (stereo not shown) [Example 172, 2-(8-fluoro-7-hydroxy-5-oxo-3-(thiazol-5-yl)-3,5-dihydro-2H-[1,4]oxazino[2,3,4-ij]quinoline-6-carboxamido)acetic acid], the IC50 came out at 7.3 nM.

Turning to `O=C(O)CNC(=O)c1c(O)c2cccc3c2n(c1=O)C(c1cnco1)CO3` (stereo not shown) [Example 173, 2-(7-hydroxy-3-(oxazol-5-yl)-5-oxo-3,5-dihydro-2H-[1,4]oxazino[2,3,4-ij]quinoline-6-carboxamido)acetic acid], the IC50 stood at 14 nM.

As to `O=C(O)CNC(=O)c1c(O)c2ccc(F)c3c2n(c1=O)C(c1cncs1)CO3` (stereo not shown) [Example 174, 2-(10-fluoro-7-hydroxy-5-oxo-3-(thiazol-5-yl)-3,5-dihydro-2H-[1,4]oxazino[2,3,4-ij]quinoline-6-carboxamido)acetic acid], the IC50 stood at 3.8 nM.

On to `O=C(O)CNC(=O)c1c(O)c2c(F)cc(F)c3c2n(c1=O)C(c1cncs1)CO3` (stereo not shown) [Example 175, 2-(8,10-difluoro-7-hydroxy-5-oxo-3-(thiazol-5-yl)-3,5-dihydro-2H-[1,4]oxazino[2,3,4-ij]quinoline-6-carboxamido)acetic acid], for which the IC50 came to 2.8 nM.

In the case of `O=C(O)CNC(=O)c1c(O)c2c(Br)ccc3c2n(c1=O)C(c1cncs1)CO3` (stereo not shown) [Example 176, 2-(8-bromo-7-hydroxy-5-oxo-3-(thiazol-5-yl)-3,5-dihydro-2H-[1,4]oxazino[2,3,4-ij]quinoline-6-carboxamido)acetic acid], the IC50 was 7.7 nM.

Take `O=C(O)CNC(=O)c1c(O)c2ccc(Br)c3c2n(c1=O)C(c1cncs1)CO3` (stereo not shown) [Example 177, 2-(10-bromo-7-hydroxy-5-oxo-3-(thiazol-5-yl)-3,5-dihydro-2H-[1,4]oxazino[2,3,4-ij]quinoline-6-carboxamido)acetic acid]: the IC50 came to 5.4 nM.

On to `N#Cc1cc2c3c(c1)c(O)c(C(=O)NCC(=O)O)c(=O)n3C(c1ccc(C(F)(F)F)cc1)CO2` (stereo not shown) [Example 179, ammonium 2-(9-cyano-7-hydroxy-5-oxo-3-(4-(trifluoromethyl)phenyl)-3,5-dihydro-2H-[1,4]oxazino[2,3,4-ij]quinoline-6-carboxamido)acetate], for which the IC50 turned out to be 4.6 nM.

Consider `N#Cc1ccc2c3c1c(O)c(C(=O)NCC(=O)O)c(=O)n3C(c1ccc(C(F)(F)F)cc1)CO2` (stereo not shown) [Example 180, ammonium 2-(8-cyano-7-hydroxy-5-oxo-3-(4-(trifluoromethyl)phenyl)-3,5-dihydro-2H-[1,4]oxazino[2,3,4-ij]quinoline-6-carboxamido)acetate], for which the IC50 was 2.9 nM.

Take `N#Cc1ccc(C2COc3cccc4c(O)c(C(=O)NCC(=O)O)c(=O)n2c34)cc1` (stereo not shown) [Example 181, ammonium 2-(3-(4-cyanophenyl)-7-hydroxy-5-oxo-3,5-dihydro-2H-[1,4]oxazino[2,3,4-ij]quinoline-6-carboxamido)acetate]: the IC50 is 10 nM.

`N#Cc1ccc2c(O)c(C(=O)NCC(=O)O)c(=O)n3c2c1OCC3c1cncs1` (stereo not shown) [Example 182, ammonium 2-(10-cyano-7-hydroxy-5-oxo-3-(thiazol-5-yl)-3,5-dihydro-2H-[1,4]oxazino[2,3,4-ij]quinoline-6-carboxamido)acetate]: the IC50 amounted to 1.4 nM.

Turning to `CS(=O)(=O)c1cc2c3c(c1)c(O)c(C(=O)NCC(=O)O)c(=O)n3C(c1ccc(C(F)(F)F)cc1)CO2` (stereo not shown) [Example 184, ammonium 2-(7-hydroxy-9-(methylsulfonyl)-5-oxo-3-(4-(trifluoromethyl)phenyl)-3,5-dihydro-2H-[1,4]oxazino[2,3,4-ij]quinoline-6-carboxamido)acetate], the IC50 came out at 19 nM.
